According to ChEMBL document CHEMBL1629567, “Pharmacodynamics of cidofovir for vaccinia virus infection in an in vitro hollow-fiber infection model system” (Antimicrob Agents Chemother, 2009):
The source made the active and inactive calls. The calls are words filed in the database; no cut-off is given here.

Experiments:
Vaccinia virus [1] = test: Antiviral activity against Vaccinia virus WR harboring the HIV gag gene infected in HeLaS3 cells after 3 to 5 days by plaque assay; assay type: functional, organism-based; settings: Orthopoxvirus vaccinia, HeLa S3
Vaccinia virus [2] = test: Antiviral activity against Vaccinia virus WR harboring the HIV gag gene infected in HeLaS3 cells assessed as inhibition of viral replication in hollow-fiber infection model at >= 50 uM as continuous infusion by plaque assay; assay type: functional, organism-based; settings: Orthopoxvirus vaccinia, HeLa S3
Vaccinia virus [3] = test: Antiviral activity against Vaccinia virus WR harboring the HIV gag gene infected in HeLaS3 cells assessed as inhibition of viral replication in hollow-fiber infection model by plaque assay; assay type: functional, organism-based; settings: Orthopoxvirus vaccinia, HeLa S3
Vaccinia virus [4] = test: Antiviral activity against Vaccinia virus WR harboring HIV gag gene infected in HeLaS3 cells at 3 uM as continuous infusion in hollow-fiber infection model after 72 hrs by ELISA; assay type: functional, organism-based; settings: Orthopoxvirus vaccinia, HeLa S3
Vaccinia virus [5] = test: Antiviral activity against Vaccinia virus WR harboring HIV gag gene infected in HeLaS3 cells at 3 uM administered as intermittent infusion over 1 hr measured after 72 hrs in hollow-fiber infection model by ELISA; assay type: functional, organism-based; settings: Orthopoxvirus vaccinia, HeLa S3
Vaccinia virus [6] = test: Antiviral activity against Vaccinia virus WR harboring HIV gag gene infected in HeLaS3 cells at 100 uM as continuous infusion in hollow-fiber infection model after 72 hrs by ELISA; assay type: functional, organism-based; settings: Orthopoxvirus vaccinia, HeLa S3
Vaccinia virus [7] = test: Antiviral activity against Vaccinia virus WR harboring HIV gag gene infected in HeLaS3 cells at 100 uM administered as intermittent infusion over 1 hr measured in hollow-fiber infection model after 72 hrs by ELISA; assay type: functional, organism-based; settings: Orthopoxvirus vaccinia, HeLa S3
Vaccinia virus [8] = test: Antiviral activity against Vaccinia virus WR harboring HIV gag gene infected in HeLaS3 cells at 30 uM as continuous infusion in hollow-fiber infection model after 72 hrs by ELISA; assay type: functional, organism-based; settings: Orthopoxvirus vaccinia, HeLa S3
Vaccinia virus [9] = test: Antiviral activity against Vaccinia virus WR harboring HIV gag gene infected in HeLaS3 cells at 30 uM administered as intermittent infusion over 1 hr measured in hollow-fiber infection model after 72 hrs by ELISA; assay type: functional, organism-based; settings: Orthopoxvirus vaccinia, HeLa S3
Vaccinia virus [10] = test: Antiviral activity against Vaccinia virus WR harboring HIV gag gene infected in HeLaS3 cells compound administered as bolus infusion equivalent to 100 uM continuous infusion in hollow-fiber infection model after 72 hrs by ELISA; assay type: functional, Orthopoxvirus vaccinia, HeLa S3

In the case of `Nc1ccn(C[C@@H](CO)OCP(=O)(O)O)c(=O)n1.O.O` [CIDOFOVIR], the EC50 (Vaccinia virus [1]) is reported as 30.9 µM, the inhibition (Vaccinia virus [2]) is reported as “Active” and the IC50 (Vaccinia virus [3]) is reported as 38 µM. For the same molecule, the Activity (Vaccinia virus [4]) was “inactive”, the Activity (Vaccinia virus [5]) was “inactive” and the Activity (Vaccinia virus [6]) was “inactive”. The Activity (Vaccinia virus [7]) was “inactive”, the Activity (Vaccinia virus [8]) was “inactive” and the Activity (Vaccinia virus [9]) was “inactive”. For the same molecule, the Activity (Vaccinia virus [10]) was 81%.
